Laboratory results as given in the kinase profiling compilation of Christmann-Franck et al. (2016).
Several values for one entry are separate records, joined by “and”; a condition that tells them apart may be missing. Identical values can stand only once.

What was measured:
Experiment in all cases: KINOMEscan competition binding
Conditions in all cases: compound 10.0 µM
BMPR1B (human) = BMPR1B (human) (UniProt O00238)
[1] = system: BMX (human), P51813 [V600E]
BRAF (human) = BRAF (human) (UniProt P15056)
BUB1 (human) = BUB1 (human) (UniProt O43683)
CDC2L2 (human) = CDC2L2 (human) (UniProt Q9UQ88)
CDK2 (human) = CDK2 (human) (UniProt P24941)
CDKL2 (human) = CDKL2 (human) (UniProt Q92772)
CLK4 (human) = CLK4 (human) (UniProt Q9HAZ1)
CSNK1A1 (human) = CSNK1A1 (human) (UniProt P48729)
CaMK1 (human) = CaMK1 (human) (UniProt Q14012)
EPHA6 (human) = EPHA6 (human) (UniProt Q9UF33)
GRK7 (human) = GRK7 (human) (UniProt Q8WTQ7)
GSG2 (human) = GSG2 (human) (UniProt Q8TF76)
IRAK4 (human) = IRAK4 (human) (UniProt Q9NWZ3)
Chain of IRAK4 (human) (Q9NWZ3 whole entry, looked up): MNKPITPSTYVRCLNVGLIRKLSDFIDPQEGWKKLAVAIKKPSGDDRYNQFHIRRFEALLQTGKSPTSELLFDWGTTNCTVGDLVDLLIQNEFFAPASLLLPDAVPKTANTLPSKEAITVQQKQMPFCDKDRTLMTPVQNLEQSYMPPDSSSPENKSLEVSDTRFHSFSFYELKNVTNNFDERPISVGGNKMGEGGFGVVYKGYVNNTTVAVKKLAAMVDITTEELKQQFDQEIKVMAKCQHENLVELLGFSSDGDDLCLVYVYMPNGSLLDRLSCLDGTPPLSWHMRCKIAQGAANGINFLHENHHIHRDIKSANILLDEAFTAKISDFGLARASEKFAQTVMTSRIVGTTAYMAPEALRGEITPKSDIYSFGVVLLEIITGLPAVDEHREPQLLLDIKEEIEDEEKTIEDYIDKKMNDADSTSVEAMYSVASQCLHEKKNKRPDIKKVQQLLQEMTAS

LATS1 (human) = LATS1 (human) (UniProt O95835)
[2] = system: LRRK2 (human), Q5S007 [G2019S]
Chain of LRRK2 (human), Q5S007 [G2019S] (Q5S007 whole entry G2019S, looked up): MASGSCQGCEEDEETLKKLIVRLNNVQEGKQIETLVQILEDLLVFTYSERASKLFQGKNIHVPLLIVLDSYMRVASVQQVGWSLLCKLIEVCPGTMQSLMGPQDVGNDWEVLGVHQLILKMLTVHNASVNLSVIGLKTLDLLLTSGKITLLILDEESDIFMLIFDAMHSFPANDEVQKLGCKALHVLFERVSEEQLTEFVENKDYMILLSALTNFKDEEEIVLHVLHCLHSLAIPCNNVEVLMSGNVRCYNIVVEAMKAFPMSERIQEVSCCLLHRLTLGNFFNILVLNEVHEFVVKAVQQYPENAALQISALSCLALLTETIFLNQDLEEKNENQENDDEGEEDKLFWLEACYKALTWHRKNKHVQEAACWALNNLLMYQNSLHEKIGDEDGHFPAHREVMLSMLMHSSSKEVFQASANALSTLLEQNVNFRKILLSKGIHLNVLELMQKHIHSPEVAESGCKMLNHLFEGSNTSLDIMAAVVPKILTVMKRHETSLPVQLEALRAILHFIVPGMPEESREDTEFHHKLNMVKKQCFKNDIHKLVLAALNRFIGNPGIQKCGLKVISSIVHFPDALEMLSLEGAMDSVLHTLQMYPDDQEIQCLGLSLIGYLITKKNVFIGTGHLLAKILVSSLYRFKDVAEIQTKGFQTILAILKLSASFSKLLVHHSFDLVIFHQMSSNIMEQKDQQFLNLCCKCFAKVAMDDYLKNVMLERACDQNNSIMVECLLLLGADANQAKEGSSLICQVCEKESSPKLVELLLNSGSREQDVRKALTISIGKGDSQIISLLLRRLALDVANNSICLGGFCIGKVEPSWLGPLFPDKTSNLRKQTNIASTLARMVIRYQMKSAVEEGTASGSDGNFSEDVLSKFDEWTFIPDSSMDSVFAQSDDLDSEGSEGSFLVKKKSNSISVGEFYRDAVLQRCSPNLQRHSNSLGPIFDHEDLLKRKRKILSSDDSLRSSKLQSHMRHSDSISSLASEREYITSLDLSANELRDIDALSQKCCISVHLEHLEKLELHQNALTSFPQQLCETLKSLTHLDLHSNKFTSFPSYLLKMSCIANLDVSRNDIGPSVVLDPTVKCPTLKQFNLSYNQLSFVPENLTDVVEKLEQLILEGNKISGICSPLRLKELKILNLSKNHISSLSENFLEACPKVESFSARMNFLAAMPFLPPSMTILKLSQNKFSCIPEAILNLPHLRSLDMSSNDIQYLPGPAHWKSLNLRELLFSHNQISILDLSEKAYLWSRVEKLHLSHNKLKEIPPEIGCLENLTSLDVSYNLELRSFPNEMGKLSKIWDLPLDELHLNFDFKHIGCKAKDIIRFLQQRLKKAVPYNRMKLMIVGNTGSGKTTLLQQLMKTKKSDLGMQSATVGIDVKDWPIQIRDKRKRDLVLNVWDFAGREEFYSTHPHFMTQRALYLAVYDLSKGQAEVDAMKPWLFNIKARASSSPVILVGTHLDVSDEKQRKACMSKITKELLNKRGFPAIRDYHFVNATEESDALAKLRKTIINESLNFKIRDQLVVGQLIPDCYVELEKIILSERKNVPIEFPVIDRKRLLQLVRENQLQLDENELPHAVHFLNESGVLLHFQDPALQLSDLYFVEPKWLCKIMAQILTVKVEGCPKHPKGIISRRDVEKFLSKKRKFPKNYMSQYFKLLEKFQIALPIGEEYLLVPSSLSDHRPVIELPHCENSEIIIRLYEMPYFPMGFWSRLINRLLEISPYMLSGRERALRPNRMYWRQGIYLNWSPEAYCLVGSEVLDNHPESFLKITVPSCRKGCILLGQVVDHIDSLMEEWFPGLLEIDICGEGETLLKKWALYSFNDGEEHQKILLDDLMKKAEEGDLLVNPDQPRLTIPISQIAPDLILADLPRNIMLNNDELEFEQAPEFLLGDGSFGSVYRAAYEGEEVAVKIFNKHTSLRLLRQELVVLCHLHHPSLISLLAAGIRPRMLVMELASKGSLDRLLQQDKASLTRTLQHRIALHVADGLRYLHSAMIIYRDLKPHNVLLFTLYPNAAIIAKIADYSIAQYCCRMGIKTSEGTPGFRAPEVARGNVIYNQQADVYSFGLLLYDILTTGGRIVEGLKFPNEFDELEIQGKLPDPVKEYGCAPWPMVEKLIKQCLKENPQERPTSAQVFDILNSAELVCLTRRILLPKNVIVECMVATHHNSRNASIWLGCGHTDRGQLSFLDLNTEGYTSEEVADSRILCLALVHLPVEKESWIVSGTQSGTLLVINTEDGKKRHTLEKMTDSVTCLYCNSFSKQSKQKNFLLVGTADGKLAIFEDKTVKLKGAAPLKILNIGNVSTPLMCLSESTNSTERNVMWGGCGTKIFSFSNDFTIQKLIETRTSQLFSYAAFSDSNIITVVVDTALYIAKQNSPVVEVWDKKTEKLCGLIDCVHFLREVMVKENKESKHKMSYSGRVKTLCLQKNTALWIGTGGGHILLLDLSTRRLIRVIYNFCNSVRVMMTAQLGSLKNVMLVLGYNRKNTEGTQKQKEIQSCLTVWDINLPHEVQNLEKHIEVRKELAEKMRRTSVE

MAK (human) = MAK (human) (UniProt P20794)
MAP3K1 (human) = MAP3K1 (human) (UniProt Q13233)
MAP3K12 (human) = MAP3K12 (human) (UniProt Q12852)
MET (human) = MET (human) (UniProt P08581)
MKNK1 (human) = MKNK1 (human) (UniProt Q9BUB5)
MYLK3 (human) = MYLK3 (human) (UniProt Q32MK0)
PDPK1 (human) = PDPK1 (human) (UniProt O15530)
PHKG2 (human) = PHKG2 (human) (UniProt P15735)
PIM3 (human) = PIM3 (human) (UniProt Q86V86)
PIP5K1C (human) = PIP5K1C (human) (UniProt O60331)
PKN3 (M.tuberculosis) = PKN3 (M.tuberculosis) (UniProt Q6P5Z2)
PRKX (human) = PRKX (human) (UniProt P51817)
[3] = system: RET (human), P07949 [V804L]
RPS6KA1 KD1 (human) = RPS6KA1 KD1 (human) (UniProt Q15418)
RPS6KA1 KD2 (human) = RPS6KA1 KD2 (human) (UniProt Q15418)
RPS6KA2 KD1 (human) = RPS6KA2 KD1 (human) (UniProt Q15349)
Chain of RPS6KA2 KD1 (human) (Q15349 whole entry, looked up): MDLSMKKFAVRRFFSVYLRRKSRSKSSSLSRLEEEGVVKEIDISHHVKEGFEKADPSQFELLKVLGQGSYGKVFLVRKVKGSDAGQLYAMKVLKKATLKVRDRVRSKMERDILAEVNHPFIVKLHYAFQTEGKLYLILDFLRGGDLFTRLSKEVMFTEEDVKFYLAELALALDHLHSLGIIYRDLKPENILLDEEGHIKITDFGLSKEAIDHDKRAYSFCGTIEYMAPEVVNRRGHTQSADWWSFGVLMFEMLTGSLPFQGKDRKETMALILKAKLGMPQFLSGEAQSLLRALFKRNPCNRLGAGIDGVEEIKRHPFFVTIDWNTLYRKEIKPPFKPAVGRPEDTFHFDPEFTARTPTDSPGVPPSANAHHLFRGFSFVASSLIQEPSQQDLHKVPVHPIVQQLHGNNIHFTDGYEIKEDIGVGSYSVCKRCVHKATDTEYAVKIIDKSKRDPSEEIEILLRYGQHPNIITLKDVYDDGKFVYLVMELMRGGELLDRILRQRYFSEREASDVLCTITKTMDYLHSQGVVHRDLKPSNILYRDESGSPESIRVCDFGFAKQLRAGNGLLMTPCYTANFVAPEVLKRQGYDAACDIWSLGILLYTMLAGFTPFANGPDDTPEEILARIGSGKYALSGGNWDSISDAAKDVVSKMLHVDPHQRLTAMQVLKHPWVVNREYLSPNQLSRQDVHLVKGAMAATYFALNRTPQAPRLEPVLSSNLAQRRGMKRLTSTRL

RPS6KA5 KD2 (human) = RPS6KA5 KD2 (human) (UniProt O75582)
SGK3 (human) = SGK3 (human) (UniProt Q96BR1)
Chain of SGK3 (human) (Q96BR1 whole entry, looked up): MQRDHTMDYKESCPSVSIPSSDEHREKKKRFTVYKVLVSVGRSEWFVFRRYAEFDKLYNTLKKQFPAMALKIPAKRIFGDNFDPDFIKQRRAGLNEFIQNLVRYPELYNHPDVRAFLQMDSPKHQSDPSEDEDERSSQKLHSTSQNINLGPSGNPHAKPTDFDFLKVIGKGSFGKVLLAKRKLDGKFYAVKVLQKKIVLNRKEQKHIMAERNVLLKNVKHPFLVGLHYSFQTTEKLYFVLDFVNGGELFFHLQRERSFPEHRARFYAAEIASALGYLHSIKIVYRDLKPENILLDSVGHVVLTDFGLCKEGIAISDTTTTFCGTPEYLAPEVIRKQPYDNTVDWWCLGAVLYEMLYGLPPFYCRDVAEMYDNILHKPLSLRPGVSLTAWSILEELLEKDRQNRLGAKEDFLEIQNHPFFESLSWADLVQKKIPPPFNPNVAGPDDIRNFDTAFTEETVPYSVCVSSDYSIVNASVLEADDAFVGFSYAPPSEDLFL

STK10 (human) = STK10 (human) (UniProt O94804)
STK24 (human) = STK24 (human) (UniProt Q9Y6E0)
STK39 (human) = STK39 (human) (UniProt Q9UEW8)
TIE1 (human) = TIE1 (human) (UniProt P35590)
WNK3 (human) = WNK3 (human) (UniProt Q9BYP7)

Chain of BMX (human), P51813 [V600E] (P51813 whole entry, looked up, stated change not applied): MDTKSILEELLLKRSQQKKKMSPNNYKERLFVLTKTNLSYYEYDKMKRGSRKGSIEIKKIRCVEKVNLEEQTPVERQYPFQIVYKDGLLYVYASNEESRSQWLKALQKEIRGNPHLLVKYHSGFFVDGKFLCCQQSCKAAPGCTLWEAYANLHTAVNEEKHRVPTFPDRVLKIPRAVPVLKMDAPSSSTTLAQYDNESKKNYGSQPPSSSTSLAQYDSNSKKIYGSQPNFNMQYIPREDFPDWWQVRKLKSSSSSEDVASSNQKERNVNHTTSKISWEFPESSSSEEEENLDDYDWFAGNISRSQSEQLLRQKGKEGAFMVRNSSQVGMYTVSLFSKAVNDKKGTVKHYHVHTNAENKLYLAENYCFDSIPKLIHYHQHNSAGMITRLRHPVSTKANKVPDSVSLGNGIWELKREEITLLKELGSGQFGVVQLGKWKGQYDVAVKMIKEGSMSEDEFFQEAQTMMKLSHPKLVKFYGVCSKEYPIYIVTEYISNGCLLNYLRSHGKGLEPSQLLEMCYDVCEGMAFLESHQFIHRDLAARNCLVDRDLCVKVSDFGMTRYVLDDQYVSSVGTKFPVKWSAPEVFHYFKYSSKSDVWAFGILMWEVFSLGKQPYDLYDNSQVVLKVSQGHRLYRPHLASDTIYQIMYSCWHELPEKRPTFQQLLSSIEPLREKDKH

Row | Compound | kinase still bound, per cent of control (BMPR1B (human)) | kinase still bound, per cent of control [1] | kinase still bound, per cent of control (BRAF (human)) | kinase still bound, per cent of control (BUB1 (human)) | kinase still bound, per cent of control (CDC2L2 (human)) | kinase still bound, per cent of control (CDK2 (human)) | kinase still bound, per cent of control (CDKL2 (human)) | kinase still bound, per cent of control (CLK4 (human)) | kinase still bound, per cent of control (CSNK1A1 (human)) | kinase still bound, per cent of control (CaMK1 (human)) | kinase still bound, per cent of control (EPHA6 (human)) | kinase still bound, per cent of control (GRK7 (human)) | kinase still bound, per cent of control (GSG2 (human)) | kinase still bound, per cent of control (IRAK4 (human)) | kinase still bound, per cent of control (LATS1 (human)) | kinase still bound, per cent of control [2] | kinase still bound, per cent of control (MAK (human)) | kinase still bound, per cent of control (MAP3K1 (human)) | kinase still bound, per cent of control (MAP3K12 (human)) | kinase still bound, per cent of control (MET (human)) | further results
1 | COc1cc2ncnc(Nc3cccc(Cl)c3)c2cc1OC | 62% | 55% | 64% | 0.3% | 77% | 100% | 84% | 37% | 35% | 81% | 11% | 75% | 100% | 8.9% | 100% | 67% | 100% | 16% | 92% | 62% | kinase still bound, per cent of control (MKNK1 (human)): 4.6%; kinase still bound, per cent of control (MYLK3 (human)): 76%; kinase still bound, per cent of control (PDPK1 (human)): 80%; kinase still bound, per cent of control (PHKG2 (human)): 93%; kinase still bound, per cent of control (PIM3 (human)): 54%; kinase still bound, per cent of control (PIP5K1C (human)): 14%; kinase still bound, per cent of control (PKN3 (M.tuberculosis)): 100%; kinase still bound, per cent of control (PRKX (human)): 100%; kinase still bound, per cent of control [3]: 100%; kinase still bound, per cent of control (RPS6KA1 KD1 (human)): 93%; kinase still bound, per cent of control (RPS6KA1 KD2 (human)): 28%; kinase still bound, per cent of control (RPS6KA2 KD1 (human)): 85%; kinase still bound, per cent of control (RPS6KA5 KD2 (human)): 67%; kinase still bound, per cent of control (SGK3 (human)): 65% and 84%; kinase still bound, per cent of control (STK10 (human)): 1.5%; kinase still bound, per cent of control (STK24 (human)): 87%; kinase still bound, per cent of control (STK39 (human)): 57%; kinase still bound, per cent of control (TIE1 (human)): 71%; kinase still bound, per cent of control (WNK3 (human)): 78%
2 | CNC(=O)Nc1ccc(-c2nc(N3CC4CCC(C3)O4)c3cnn(C4CCC5(CC4)OCCO5)c3n2)cc1 | 83% | 100% | 100% | 52% | 97% | 92% | 100% | 88% | 100% | 93% | 98% | 91% | 100% | 100% | 95% | 65% | 100% | 58% | 93% | 93% | kinase still bound, per cent of control (MKNK1 (human)): 100%; kinase still bound, per cent of control (MYLK3 (human)): 100%; kinase still bound, per cent of control (PDPK1 (human)): 76%; kinase still bound, per cent of control (PHKG2 (human)): 96%; kinase still bound, per cent of control (PIM3 (human)): 100%; kinase still bound, per cent of control (PIP5K1C (human)): 100%; kinase still bound, per cent of control (PKN3 (M.tuberculosis)): 94%; kinase still bound, per cent of control (PRKX (human)): 100%; kinase still bound, per cent of control [3]: 85%; kinase still bound, per cent of control (RPS6KA1 KD1 (human)): 100%; kinase still bound, per cent of control (RPS6KA1 KD2 (human)): 91%; kinase still bound, per cent of control (RPS6KA2 KD1 (human)): 100%; kinase still bound, per cent of control (RPS6KA5 KD2 (human)): 90%; kinase still bound, per cent of control (SGK3 (human)): 100%; kinase still bound, per cent of control (STK10 (human)): 99%; kinase still bound, per cent of control (STK24 (human)): 96%; kinase still bound, per cent of control (STK39 (human)): 100%; kinase still bound, per cent of control (TIE1 (human)): 98%; kinase still bound, per cent of control (WNK3 (human)): 100%
3 | O=c1[nH]c2ccccc2n1C1CCN(Cc2ccc(-c3nc4cc5[nH]cnc5cc4nc3-c3ccccc3)cc2)CC1 | 88% | 84% | 87% | 64% | 100% | 92% | 77% | 95% | 50% | 87% | 98% | 98% | 100% | 80% | 93% | 100% | 100% | 80% | 100% | 39% | kinase still bound, per cent of control (MKNK1 (human)): 77%; kinase still bound, per cent of control (MYLK3 (human)): 100%; kinase still bound, per cent of control (PDPK1 (human)): 93%; kinase still bound, per cent of control (PHKG2 (human)): 100%; kinase still bound, per cent of control (PIM3 (human)): 100%; kinase still bound, per cent of control (PIP5K1C (human)): 29%; kinase still bound, per cent of control (PKN3 (M.tuberculosis)): 78%; kinase still bound, per cent of control (PRKX (human)): 100%; kinase still bound, per cent of control [3]: 85%; kinase still bound, per cent of control (RPS6KA1 KD1 (human)): 91%; kinase still bound, per cent of control (RPS6KA1 KD2 (human)): 100%; kinase still bound, per cent of control (RPS6KA2 KD1 (human)): 51%; kinase still bound, per cent of control (RPS6KA5 KD2 (human)): 99%; kinase still bound, per cent of control (SGK3 (human)): 75% and 100%; kinase still bound, per cent of control (STK10 (human)): 65%; kinase still bound, per cent of control (STK24 (human)): 100%; kinase still bound, per cent of control (STK39 (human)): 100%; kinase still bound, per cent of control (TIE1 (human)): 100%; kinase still bound, per cent of control (WNK3 (human)): 95%
